≈ marks a conversion by molar mass, not a printed value. Where two headings read alike, the source gives them in different places.
How the values were obtained:
[1] = test system: Staphylococcus aureus S13E; test: microbe, parasite or virus in culture; assay type: cell-based; settings: Staphylococcus aureus, S13E
Procedure: (§1) The MIC's in Table III were determined by standard agar-dilution assays. The MIC's in Table IV were obtained using conventional brothdilution microtiter tests.

[2] = test system: Streptococcus pneumoniae Park I; test: microbe, parasite or virus in culture; assay type: cell-based; settings: Streptococcus pneumoniae
Procedure: as §1

Escherichia coli EC14 = test: standard agar-dilution MIC assay; assay type: cell-based; settings: agar-dilution, read-out: MIC
Procedure: as §1

[3] = test system: Haemophilus influenzae 76; test: standard agar-dilution MIC assay; assay type: cell-based; settings: Haemophilus influenzae, 76
Procedure: as §1

[4] = test system: Haemophilus influenzae C.L.; test: standard agar-dilution MIC assay; assay type: cell-based; settings: Haemophilus influenzae
Procedure: as §1

[5] = test system: Streptococcus Group D X66; test: standard agar-dilution MIC assay; assay type: cell-based; settings: read-out: MIC
Procedure: as §1

[6] = test system: Staphylococcus aureus X1.1; test: standard agar-dilution MIC assay; assay type: cell-based; settings: Staphylococcus aureus, X1.1
Procedure: as §1

[7] = test system: Streptococcus pyogenes C203; test: standard agar-dilution MIC assay; assay type: cell-based; settings: Streptococcus pyogenes, C203
Procedure: as §1

[8] = test system: Klebsiella pneumoniae X68; test: standard agar-dilution MIC assay; assay type: cell-based; settings: Klebsiella pneumoniae, X68; agar-dilution; read-out: MIC
Procedure: as §1

[9] = test system: Staphylococcus aureus V41; test: standard agar-dilution MIC assay; assay type: cell-based; settings: Staphylococcus aureus, V41
Procedure: as §1

[10] = test system: Pseudomonas aeruginosa X239; test: standard agar-dilution MIC assay; assay type: cell-based; settings: Pseudomonas aeruginosa, X239; agar-dilution; read-out: MIC
Procedure: as §1

[11] = test system: Staphylococcus epidermidis EPI1; test: standard agar-dilution MIC assay; assay type: cell-based; settings: Staphylococcus epidermidis, EPI1
Procedure: as §1

[12] = test system: Streptococcus Group D 9960; test: standard agar-dilution MIC assay; assay type: cell-based; settings: GROUPD9960, read-out: MIC
Procedure: as §1

[13] = test system: Staphylococcus aureus X400; test: standard agar-dilution MIC assay; assay type: cell-based; settings: Staphylococcus aureus, X400
Procedure: as §1

[14] = test system: Pasteurella multocida 68C; test: broth-dilution microtiter MIC test; assay type: cell-based; settings: Pasteurella multocida, 68C
Procedure: as §1

[15] = test system: Mycoplasma gallisepticum 15E; test: broth-dilution microtiter MIC test; assay type: cell-based; settings: Mycoplasmoides gallisepticum, 15E
Procedure: as §1

[16] = test system: Pasteurella hemolytica 41D; test: broth-dilution microtiter MIC test; assay type: cell-based; settings: Pasteurella, 41D
Procedure: as §1

[17] = test system: Pasteurella hemolytica 23C; test: broth-dilution microtiter MIC test; assay type: cell-based; settings: Pasteurella, 23C
Procedure: as §1

[18] = test system: Pasteurella multocida 60A; test: broth-dilution microtiter MIC test; assay type: cell-based; settings: Pasteurella multocida, 60A
Procedure: as §1

[19] = test system: Pasteurella multocida 17E; test: broth-dilution microtiter MIC test; assay type: cell-based; settings: Pasteurella multocida, 17E
Procedure: as §1

Mycoplasma hyorhinis 29E = test: broth-dilution microtiter MIC test; assay type: cell-based; settings: Mycoplasma, 29E
Procedure: as §1

[20] = test system: Mycoplasma gallisepticum 29C; test: broth-dilution microtiter MIC test; assay type: cell-based; settings: Mycoplasmoides gallisepticum, 29C
Procedure: as §1

[21] = test system: Pasteurella multocida 22A; test: broth-dilution microtiter MIC test; assay type: cell-based; settings: Pasteurella multocida, 22A
Procedure: as §1

Streptococcus sp. 19F = test: broth-dilution microtiter MIC test; assay type: cell-based; settings: Streptococcus, SP.19F
Procedure: as §1

[22] = test system: Pasteurella hemolytica 22C; test: broth-dilution microtiter MIC test; assay type: cell-based; settings: Pasteurella, 22C
Procedure: as §1

[23] = test system: Mycoplasma gallisepticum 36H; test: broth-dilution microtiter MIC test; assay type: cell-based; settings: Mycoplasmoides gallisepticum, 36H
Procedure: as §1

[24] = test system: Staphylococcus aureus 19C; test: broth-dilution microtiter MIC test; assay type: cell-based; settings: Staphylococcus aureus, 19C
Procedure: as §1

[25] = test system: Bordetella bronchiseptica; test: broth-dilution microtiter MIC test; assay type: cell-based; settings: Bordetella bronchiseptica; broth-dilution microtiter; read-out: MIC
Procedure: as §1

[26] = test system: Pasteurella multocida 40G; test: broth-dilution microtiter MIC test; assay type: cell-based; settings: Pasteurella multocida, 40G
Procedure: as §1

Mycoplasma synoviae 40A = test: broth-dilution microtiter MIC test; assay type: cell-based; settings: Mycoplasmopsis synoviae, 40A
Procedure: as §1

[27] = test system: Streptococcus pyogenes C203; test: protection of mice experimentally infected with S. pyogenes C203; assay type: in vivo; settings: mice, mg/kg × 2, doses given 1 and 4 hours postinfection, read-out: ED50
Procedure: The formula 1 compounds have shown in vivo antimicrobial activity against experimentally-induced infections in laboratory animals. When two doses of test compound were administered to mice experimentally infected with S. pyrogenes C203, the activity observed was measured as an ED50 value [effective dose in mg/kg to protect 50% of the test animals: see Warren Wick, et al., J. Bacteriol. 81, 233-235 (1961)].
^a mg/kg × 2; doses given 1 and 4 hours postinfection

[28] = broth-dilution microtiter, read-out: MIC

SMILES | MIC [1] [µg/mL] | MIC [2] [µg/mL] | MIC (Escherichia coli EC14) [µg/mL] | MIC [3] [µg/mL] | MIC [5] [µg/mL] | MIC [6] [µg/mL] | MIC [7] [µg/mL] | MIC [8] [µg/mL] | MIC [9] [µg/mL] | MIC [10] [µg/mL] | MIC [11] [µg/mL] | MIC [12] [µg/mL] | MIC [13] [µg/mL] | MIC [14] [µg/mL] | MIC [15] [µg/mL] | MIC (Mycoplasma hyorhinis 29E) [µg/mL] | MIC [20] [µg/mL] | MIC (Streptococcus sp. 19F) [µg/mL] | MIC [23] [µg/mL] | MIC [24] [µg/mL] | also measured
CCC1OC(=O)CC(O)C(C)C(OC2OC(C)C(O)C(N(C)C)C2O)C(CC=O)CC(C)C(=O)C=CC(C)=CC1COC1OC(C)C(OC(=O)CC(C)C)C(OC(=O)CC(C)C)C1OC (stereo not shown) [Compound 28, 3",4"-Di-O-isovaleryl-lactenocin] | 2 (≈ 2.16 µM) | 0.5 (≈ 0.54 µM) | > 128 | 64 (≈ 69.1 µM) | 4 (≈ 4.32 µM) | 2 (≈ 2.16 µM) | 2 (≈ 2.16 µM) | > 128 | 2 (≈ 2.16 µM) | > 128 | 2 (≈ 2.16 µM) | 4 (≈ 4.32 µM) | 4 (≈ 4.32 µM) | 50 (≈ 54 µM) | 25 (≈ 27 µM) | 6.25 (≈ 6.75 µM) | 1.56 (≈ 1.68 µM) | 3.12 (≈ 3.37 µM) | 50 (≈ 54 µM) | 6.25 (≈ 6.75 µM) | MIC ([4]; agar-dilution, Ampicillin-sensitive strain, read-out: MIC): 128 µg/mL (≈ 138 µM); MIC [16, 28]: > 50 µg/mL; MIC [17, 28]: > 50 µg/mL; MIC ([18]; broth-dilution microtiter, Avian isolate, read-out: MIC): > 50 µg/mL; MIC ([19]; broth-dilution microtiter, Bovine isolate, read-out: MIC): > 50 µg/mL; MIC [21, 28]: > 50 µg/mL; MIC [22, 28]: > 50 µg/mL; MIC [25]: > 50 µg/mL; MIC [26]: 50 µg/mL (≈ 54 µM); MIC (Mycoplasma synoviae 40A): 12.5 µg/mL (≈ 13.5 µM); ED50 ([27]; C203, Oral): 21.4 mg/kg; ED50 ([27]; C203, sc, Subcutaneous): > 6.25 mg/kg
CCC1OC(=O)CC(O)C(C)C(OC2OC(C)C(O)C(N(C)C)C2O)C(CC=O)CC(C)C(=O)C=CC(C)=CC1COC1OC(C)C(OC(C)=O)C(OC(=O)COc2ccccc2)C1OC (stereo not shown) [Compound 38, 4"-O-Acetyl-3"-O-phenoxyacetyl-lactenocin] | 1 (≈ 1.07 µM) | 0.25 (≈ 0.268 µM) | > 128 | 8 (≈ 8.56 µM) | 2 (≈ 2.14 µM) | 1 (≈ 1.07 µM) | 0.5 (≈ 0.535 µM) | > 128 | 1 (≈ 1.07 µM) | > 128 | 1 (≈ 1.07 µM) | 2 (≈ 2.14 µM) | 2 (≈ 2.14 µM) | 12.5 (≈ 13.4 µM) | 25 (≈ 26.8 µM) | 12.5 (≈ 13.4 µM) | 0.39 (≈ 0.418 µM) | 0.78 (≈ 0.835 µM) | 12.5 (≈ 13.4 µM) | 3.12 (≈ 3.34 µM) | MIC [4]: 16 µg/mL (≈ 17.1 µM); MIC [16]: 50 µg/mL (≈ 53.5 µM); MIC [17]: 25 µg/mL (≈ 26.8 µM); MIC [18]: 12.5 µg/mL (≈ 13.4 µM); MIC [19]: 25 µg/mL (≈ 26.8 µM); MIC [21]: 25 µg/mL (≈ 26.8 µM); MIC [22]: 25 µg/mL (≈ 26.8 µM); MIC [25]: > 50 µg/mL; MIC [26]: 25 µg/mL (≈ 26.8 µM); MIC (Mycoplasma synoviae 40A): 0.78 µg/mL (≈ 0.835 µM)
CCC1OC(=O)CC(O)C(C)C(OC2OC(C)C(O)C(N(C)C)C2O)C(CC=O)CC(C)C(=O)C=CC(C)=CC1COC1OC(C)C(OC(=O)CC(C)C)C(O)C1OC (stereo not shown) [Compound 26, 4"-O-Isovaleryl-lactenocin] | 1 (≈ 1.19 µM) | 0.25 (≈ 0.297 µM) | > 128 | 8 (≈ 9.5 µM) | 1 (≈ 1.19 µM) | 1 (≈ 1.19 µM) | 0.5 (≈ 0.594 µM) | > 128 | 1 (≈ 1.19 µM) | > 128 | 1 (≈ 1.19 µM) | 1 (≈ 1.19 µM) | 2 (≈ 2.38 µM) | 12.5 (≈ 14.8 µM) | 50 (≈ 59.4 µM) | 1.56 (≈ 1.85 µM) | 1.56 (≈ 1.85 µM) | 1.56 (≈ 1.85 µM) | 50 (≈ 59.4 µM) | 3.12 (≈ 3.71 µM) | MIC [4]: 8 µg/mL (≈ 9.5 µM); MIC [16]: 50 µg/mL (≈ 59.4 µM); MIC [17]: 25 µg/mL (≈ 29.7 µM); MIC [18]: 25 µg/mL (≈ 29.7 µM); MIC [19]: 25 µg/mL (≈ 29.7 µM); MIC [21]: 25 µg/mL (≈ 29.7 µM); MIC [22]: 50 µg/mL (≈ 59.4 µM); MIC [25]: > 50 µg/mL; MIC [26]: 25 µg/mL (≈ 29.7 µM); MIC (Mycoplasma synoviae 40A): 3.12 µg/mL (≈ 3.71 µM); ED50 ([27]; C203, Oral): > 25 mg/kg; ED50 ([27]; C203, sc, Subcutaneous): 5.37 mg/kg

Reference: patent US4820694A, “Modifications of 3-O-demethylmycinose in macrocin and lactenocin” (priority 1986, dated 1989)
